Patent publication US9248162B2, “Factor H for treatment of rheumatoid arthritis” (Baxter International Inc., priority 2013, dated 2016)
Where “and” joins values, the source holds several entries; their conditions need not be identical. Equal entries are not always repeated. Entries after “also recorded” stand apart in the source; their conditions may differ. Marks after values point to notes of the source that are not given here.

Assays:
Format in all cases: in vivo, Balb C mice
[1] = system: collagen antibody-induced arthritis; experiment: Mouse CAIA: clinical score; set-up: key to Clinical Score, Summary (significance): ns: = not significant; *: = P < 0.05; **: = P < 0.01; ***: = P < 0.001
Method: The mice were treated with ArthritoMAb (anti-collagen) antibody cocktail (2 mg, i.v.) on day 1, followed 7 days later with an injection of LPS (50 μg, i.p.). On day 8, hind paw volumes were measured for each animal and distributed to various treatment groups.
(§1) Factor H was formulated in 20 mM Citrate, 150 mM NaCl, pH=6. […] Ethanercept was formulated as Enbrel™ in saline. Vehicle was formulated in 20 mM Citrate, 150 mM NaCl, pH=6. […] The dosing volume for Factor H and BX12 was 25 mL/kg (0.500 mL/20 g mouse) and adjusted accordingly for body weight.
(§2) Dosing with the different agents was started on day 8 as described in Table 3.

[2] = Mouse CAIA: body weight and tolerability
Method: (§3) Balb C mice (n=10 per cohort) were used to determine the efficacy of Factor H (FH) during […]. The mice were treated with ArthritoMAb (anti-collagen) antibody cocktail (2 mg, i.v.) on day 1, followed 7 days later with an injection of LPS (50 μg, i.p.). On day 8, hind paw volumes were measured for each animal and distributed to various treatment groups.
as §2
(§4) Hind paw volumes were measured on day 8, 11, 12, 13, 15, 19 and 22 (endpoint). The age at start date was 7 to 9 weeks. Body weights were measured bi-weekly to the endpoint (Table 4). At the endpoint, tissue samples were processed for histology and submitted to a pathologist for independent analysis. Sampling 1 was performed at the endpoint. The hind limbs were preserved in 10% formalin. Sampling 2 was performed at the endpoint for group 4 animals. Blood was collected by terminal cardiac puncture. The blood was processed for anti-coagulant. The kidneys were additionally preserved in formalin and followed with 70% EtOH. Samples were scored for inflammation, pannus (granulation tissue), cartilage damage, bone resorption and exostosis (Table 5).

[3] = system: collagen antibody-induced arthritis; experiment: Mouse CAIA: ankle histology scores (H & E); set-up: key: 0: normal; 1: minimal to mild loss of staining density with no obvious chondrocyte loss or collagen disruption; 2: mild loss of staining density with focal mild (superficial) chondrocyte loss and/or collagen disruption; 3: moderate loss of staining density with multifocal moderate (depth to middle zone) chondrocyte loss and/or collagen disruption; 4: marked loss of staining density with multifocal marked (depth to deep zone) chondrocyte loss and/or collagen disruption; 5: severe diffuse loss of staining density with multifocal severe (depth to tide mark) chondrocyte loss and/or collagen disruption; details: individual animal, score 0-5, endpoint day 22, listed as Group 4
Method: as §3, §2, §4

[4] = system: collagen antibody-induced arthritis; experiment: Mouse CAIA: ankle histology scores (H & E); set-up: key: 0: normal; 1: minimal infiltration of inflammatory cells in periarticular tissue; 2: mild infiltration; 3: moderate infiltration with moderate edema; 4: marked infiltration with marked edema; 5: severe infiltration with severe edema; details: individual animal, score 0-5, endpoint day 22, listed as Group 4
Method: as §3, §2, §4

[5] = system: collagen antibody-induced arthritis; experiment: Mouse CAIA: hind paw / footpad volume (swelling, disease burden); set-up: Mean Disease Burden / Total Disease Burden (AUC) / Hind Limb Volume, Mean Diff. / Total Disease, Mean Diff.: unit not given here; details: for % Disease Suppression / Total Disease Burden (AUC): days 8-22
Method: as §3, §1, §2
as §4, with “The” for “Hind paw volumes were measured on day 8, 11, 12, 13, 15, 19 and 22 (endpoint). The”

[6] = system: collagen antibody-induced arthritis; experiment: Mouse CAIA: ankle histology scores (H & E); set-up: key: 0: normal; 1: minimal; 2: mild; 3: moderate; 4: marked; 5: severe; details: individual animal, score 0-5, endpoint day 22, listed as Group 4
Method: as §3, §2, §4

[7] = system: collagen antibody-induced arthritis; experiment: Mouse CAIA: ankle histology scores (H & E); set-up: key: 0: normal; 1: minimal infiltration of pannus in cartilage and subchondral bone; 2: mild infiltration; 3: moderate infiltration; 4: marked infiltration; 5: severe infiltration; details: individual animal, score 0-5, endpoint day 22, listed as Group 4
Method: as §3, §2, §4

[8] = Vehicle vs agent, Dunn's Multiple Comparison Test
[9] = Vehicle vs agent, Dunnett's Multiple Comparison Test
[10] = individual animal, listed as BX12

## Factor H
[1]; [8]
  Clinical Score, Difference in rank sum: 8.3
  Clinical Score, Summary (significance): ns
[1]; group mean, n=10
  Max Clin Score, Mean: 33.40
[1]; group mean, n=10, day 8 (start of dosing)
  Clinical Score, Day of Study 8, Mean: 3.00
[1]; group mean, n=10, day 11
  Clinical Score, Day of Study 11, Mean: 14.60
[1]; group mean, n=10, day 12
  Clinical Score, Day of Study 12, Mean: 33.40
[1]; group mean, n=10, day 13
  Clinical Score, Day of Study 13, Mean: 23.60
[1]; group mean, n=10, day 16 (Jul. 1, 2011)
  Clinical Score, Day of Study 16, Mean: 16.90
[1]; group mean, n=10, day 19
  Clinical Score, Day of Study 19, Mean: 18.20
[1]; group mean, n=10, day 22 (endpoint)
  Clinical Score, Day of Study 22, Mean: 18.80
[1]; individual animal, day of study
  Day (of Max Clin Score): 12
[1]; individual animal, maximum over days 8 to 22, listed as BX12
  Max Clin Score: 37 and 42 (2×) and 20 and 21 and 49 and 30 and 32 and 16 and 45
[1]; individual animal, score 0-60, day 8 (start of dosing), listed as BX12
  Clinical Score, Day of Study 8: 5 (3×) and 0 (6×) and 15
[1]; individual animal, score 0-60, day 11, listed as BX12
  Clinical Score, Day of Study 11: 25 and 10 (2×) and 15 (2×) and 5 and 18 and 21 (2×) and 6
[1]; individual animal, score 0-60, day 12, listed as BX12
  Clinical Score, Day of Study 12: 37 and 42 (2×) and 20 and 21 and 49 and 30 and 32 and 16 and 45
[1]; individual animal, score 0-60, day 13, listed as BX12
  Clinical Score, Day of Study 13: 18 and 37 and 34 and 20 (2×) and 10 and 40 and 26 and 15 and 16
[1]; individual animal, score 0-60, day 16 (Jul. 1, 2011), listed as BX12
  Clinical Score, Day of Study 16: 13 and 21 and 15 (2×) and 10 and 1 and 43 and 25 and 6 and 20
[1]; individual animal, score 0-60, day 19, listed as BX12
  Clinical Score, Day of Study 19: 25 and 31 and 20 (2×) and 10 (3×) and 0 and 46 and 7
[1]; individual animal, score 0-60, day 22 (endpoint), listed as BX12
  Clinical Score, Day of Study 22: 24 and 31 and 21 and 10 and 1 and 39 and 15 and 26 and 5 and 16
[1]; listed as 'Mean', n=10, day of study
  Day (of Max Clin Score), Mean: 12.00
[1]; result in words (Tables 6 and 7, FIG. 10), listed as FH
  clinical response / clinical score: improved clinical response compared to vehicle control animals; also recorded: improves more over Etanercept at later time points (days 15 to 22); also recorded: lower clinical score compared to both vehicle and Etanercept
[1]; scored from 0 to 60 (15/limb), sum of 4 limbs, vehicle 45.4
  Mean Maximum Clinical Score: 33.4^ns
[2]; mouse, in vivo
  Mean Body Weigh at Nadir: −7.4%
  body weights vs. vehicle controls: comparable to vehicle controls
[2]; result in words, FH 440 mg/kg i.p. qodx7
  treatment-related deaths: no treatment-related deaths
[3]
  Score From H & E: Cartilage Damage: 1 (4×) and 2
[4]
  Score From H & E: Bone Resorption: 0
  Score From H & E: Cartilage Damage: 0
  Score From H & E: Pannus: 2 and 0 (4×)
  Score From H & E: Periosteal/Exostotic Changes: 0
[5]; [9]
  Hind Limb Volume, Mean Diff.: 0.1199
  Hind Limb Volume, Summary (significance): *** (= P < 0.001)
  Total Disease, Mean Diff.: 1.88
  Total Disease, Summary (significance): *** (= P < 0.001)
[5]; day 8 of study, group mean, n 10
  Hind paw volume: 0.35 mL
[5]; day 8 of study, individual animal, listed as BX12
  Hind paw volume: 0.41 mL and 0.4 mL and 0.38 mL and 0.37 mL and 0.35 mL and 0.34 mL and 0.32 mL (2×) and 0.3 mL (2×)
[5]; day 11 of study, group mean, n 10
  Hind paw volume: 0.39 mL
[5]; day 11 of study, individual animal, listed as BX12
  Hind paw volume: 0.44 mL and 0.36 mL and 0.38 mL and 0.4 mL and 0.34 mL and 0.39 mL and 0.46 mL and 0.43 mL and 0.35 mL
[5]; day 12 of study, group mean, n 10
  Hind paw volume: 0.44 mL
[5]; day 12 of study, individual animal, listed as BX12
  Hind paw volume: 0.5 mL and 0.56 mL and 0.52 mL and 0.4 mL and 0.35 mL and 0.55 mL and 0.37 mL and 0.34 mL and 0.3 mL and 0.45 mL
[5]; day 13 of study, group mean, n 10
  Hind paw volume: 0.36 mL
[5]; day 13 of study, individual animal, listed as BX12
  Hind paw volume: 0.32 mL (2×) and 0.54 mL and 0.36 mL and 0.29 mL (2×) and 0.43 mL and 0.37 mL and 0.39 mL and 0.33 mL
[5]; day 16 of study, group mean, n 10
  Hind paw volume: 0.31 mL
[5]; day 16 of study, individual animal, listed as BX12
  Hind paw volume: 0.29 mL (2×) and 0.35 mL (2×) and 0.32 mL and 0.28 mL (3×) and 0.42 mL and 0.27 mL
[5]; day 19 of study, group mean, n 10
  Hind paw volume: 0.34 mL
[5]; day 19 of study, individual animal, listed as BX12
  Hind paw volume: 0.3 mL (2×) and 0.4 mL and 0.42 mL and 0.31 mL and 0.25 mL and 0.45 mL and 0.29 mL (2×) and 0.36 mL
[5]; day 22 of study, group mean, n 10
  Hind paw volume: 0.35 mL
[5]; day 22 of study, individual animal, listed as BX12
  Hind paw volume: 0.38 mL and 0.39 mL and 0.32 mL (2×) and 0.33 mL and 0.42 mL and 0.35 mL and 0.34 mL (2×) and 0.29 mL
[5]; group mean, n 10
  % Disease Suppression: 97.33%
  Total Disease Burden (AUC): 0.05
[5]; [10]
  % Disease Suppression: 140.2% and 93.5% and 107.8% and 121.6% and 130.8% and 38.3% and 96.1% and 96.9% and 65.5% and 52.1%
  Total Disease Burden (AUC): −0.78 and 0.13 and −0.15 and −0.42 and −0.60 and 1.19 and 0.08 (2×) and 0.55 and 0.35
[5]; difference between mean combined foot pad volumes on day 8 and on median day of maximal swelling, vehicle 0.21
  Maximum Δ Mean Volume: 0.12*** ml
[5]; group mean AUC of combined footpad volume over baseline, days 8 to 22, vehicle 1.93
  Mean Disease Burden: 0.05***
[5]; percent decrease in total disease burden relative to vehicle
  % Disease Suppression (vs Vehicle): 97.3%
[5]; result in words (Table 9, FIG. 9), listed as FH
  foot pad / hind limb swelling: lower mean change in foot pad swelling on the day of maximal swelling compared to vehicle; also recorded: performed well compared to Etanercept
[6]
  Score From H & E: Bone Resorption: 1 and 2
  Score From H & E: Periosteal/Exostotic Changes: 3
[7]
  Score From H & E: Pannus: 1 (4×) and 3
